Experimental data published in patent US20040086904A1, “Screening assay for cotranslational translocation interfering compounds” (priority 2001, published 2004).

Assays:
[1] = biological target: T1, VCAM-1 (Homo sapiens, UniProt P19320); test: Transient expression of VCAM-1 in HEK293 cells, Western blot / immunoblot; type: cell-based; design: expressed in transfected cells; host or cells: HEK293
T1 sequence (P19320 25-739): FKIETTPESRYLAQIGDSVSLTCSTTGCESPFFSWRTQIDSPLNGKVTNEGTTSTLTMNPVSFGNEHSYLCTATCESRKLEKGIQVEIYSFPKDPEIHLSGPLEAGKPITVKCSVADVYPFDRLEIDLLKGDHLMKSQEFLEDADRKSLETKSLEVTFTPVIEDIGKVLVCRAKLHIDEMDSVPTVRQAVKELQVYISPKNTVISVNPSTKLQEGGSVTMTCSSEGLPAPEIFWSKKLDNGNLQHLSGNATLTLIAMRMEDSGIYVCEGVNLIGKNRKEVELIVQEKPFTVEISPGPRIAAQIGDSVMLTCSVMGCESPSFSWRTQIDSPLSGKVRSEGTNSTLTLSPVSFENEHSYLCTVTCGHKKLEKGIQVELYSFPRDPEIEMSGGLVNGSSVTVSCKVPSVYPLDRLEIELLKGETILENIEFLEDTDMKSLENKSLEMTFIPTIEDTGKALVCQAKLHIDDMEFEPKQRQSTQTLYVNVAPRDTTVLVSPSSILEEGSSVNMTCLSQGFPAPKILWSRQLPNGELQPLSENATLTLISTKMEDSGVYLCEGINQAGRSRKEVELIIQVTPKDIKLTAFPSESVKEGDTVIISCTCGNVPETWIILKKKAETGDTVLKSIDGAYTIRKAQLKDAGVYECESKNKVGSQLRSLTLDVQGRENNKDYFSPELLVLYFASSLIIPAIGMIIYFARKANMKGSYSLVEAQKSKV
Protocol: The E-Selectin and ICAM-1 expression vectors pCDM8-E-selectin and pCDM8-ICAM-1 allowing transient expression in mammalian cells and cell-free translation are obtained from R&D Systems. VCAM-1 cDNA is obtained by reverse transcription of total RNA from TNF-α stimulated primary human umbilical vein endothelial cells (HUVEC) as follows. After extraction of total RNA with Trizol (GibcoBRL) according to the suppliers recommendations, reverse transcription (RT) PCR on approximately 3 μg total HUVEC RNA is performed using the Advantage High Fidelity PCR kit (CLONTECH) under standard conditions with N- and C-terminal VCAM-1-specific sense and antisense oligonucleotide primers, respectively. Primers are tailed, introducing a Kpnl restriction site 5′ of the Kozak sequence and a Xhol site 3′ of the stop codon. Placental SEAP is amplified accordingly by PCR using plasmid pBC 12/PLAP489 (Berger et al., 1988) as a template and similar tailed SEAP-specific sense and antisense oligonuclotide primers. The SEAP and VCAM-1 cDNAs are isolated and cloned into the pCR2.1 vector (TA cloning kit, Invitrogen). […] Approximately equal molar quantities of each PCR product A and B are phosphorylated and ligated. […]
Protein expression in cells is analyzed by Western blot and subsequent immunoblot analysis. […]

[2] = biological target: T2, E-Selectin mutant molecule with SP from VCAM-1 (Homo sapiens, UniProt P16581); test: Chimeric fusion construct sensitivity (cell-free translation/translocation and transfected HEK293 cells); type: cell-based; details: cell-free translation/translocation assay and transiently transfected HEK293 cells
T2 construct: VCAM-1 signal peptide (SP; VCAM1, P19320), replacing E-Selectin's own SP (N); expressed in transfected cells; host or cells: HEK293 (transient); also translated cell-free in reticulocyte lysate with microsomes
Protocol: (§1) The E-Selectin and ICAM-1 expression vectors pCDM8-E-selectin and pCDM8-ICAM-1 allowing transient expression in mammalian cells and cell-free translation are obtained from R&D Systems. VCAM-1 cDNA is obtained by reverse transcription of total RNA from TNF-α stimulated primary human umbilical vein endothelial cells (HUVEC) as follows. After extraction of total RNA with Trizol (GibcoBRL) according to the suppliers recommendations, reverse transcription (RT) PCR on approximately 3 μg total HUVEC RNA is performed using the Advantage High Fidelity PCR kit (CLONTECH) under standard conditions with N- and C-terminal VCAM-1-specific sense and antisense oligonucleotide primers, respectively. Primers are tailed, introducing a Kpnl restriction site 5′ of the Kozak sequence and a Xhol site 3′ of the stop codon. Placental SEAP is amplified accordingly by PCR using plasmid pBC 12/PLAP489 (Berger et al., 1988) as a template and similar tailed SEAP-specific sense and antisense oligonuclotide primers. The SEAP and VCAM-1 cDNAs are isolated and cloned into the pCR2.1 vector (TA cloning kit, Invitrogen). All sequences are confirmed by sequencing and subsequently subcloned into the mammalian expression vector pcDNA3.1 (+) (Invitrogen) as Kpnl Xhol fragments for transient expression under control of the constitutive immediate-early CMV promoter and for cell-free translation from the bacteriophage T7 promoter. To generate SP-gene fusion constructs the recombinant PCR-ligation-PCR mutagenesis method is used (Ali and Steinkasserer, 1995). Briefly, in a primary PCR reaction the two fusion gene fragments are independently amplified using appropriate specific primers for the SPs (PCR product A) and the mature sequences (PCR product B), respectively. Approximately equal molar quantities of each PCR product A and B are phosphorylated and ligated. Finally, out of the possible ligation combinations, the desired fusion gene construct is specifically amplified from an aliquot of the ligation reaction by a secondary PCR using the 5′ sense primer of the SP and the 3′ antisense primer of the mature sequence. […]

[3] = biological target: T3, VCAM-1 mutant molecule containing the SP from E-Selectin (Homo sapiens, UniProt P19320); test: as above; type: cell-based; details: cell-free translation/translocation assay and transiently transfected HEK293 cells
T3 construct: E-Selectin signal peptide (SP; SELE, P16581), replacing VCAM-1's own SP (N); expressed in transfected cells; host or cells: HEK293 (transient); also translated cell-free in reticulocyte lysate with microsomes
Protocol: as §1

[4] = test system: VCAMSP15+4/E-Sel; test: as above; type: cell-based; details: 15 aa of the SP plus 4 aa of the adjacent mature domain of VCAM-1
Protocol: as §1

[5] = test system: SEAP; test: SP-SEAP assay, secretion of SEAP into the medium; type: cell-based, human; details: transiently transfected cells, increasing concentrations
Protocol: Cell Culture and Transient Transfections HEK293 cells are maintained in Dulbeccos' modified Eagle's medium (DMEM, Gibco-BRL), supplemented with 10% heat-inactivated fetal calf serum (FCS, Bio-Whittaker) and 100 Units/ml each of penicillin (BC) and streptomycin (Gibco-BRL) at 37° in a 5% humidified CO2 incubator. HUVEC cells are cultured in endothelial cell basal medium (EBM, Clonetics Corp.) supplemented with 10% FCS, 5×10^−4 M dibutyryl cAMP (Sigma), 1 μg/ml hydrocortisone (Sigma) and 10 ng/ml human EGF (Boehringer) at 37° in a 5% humidified CO2 incubator. VCAM-1 production is stimulated by incubation with 100U/ml TNF-α for ca. 8 hours. For transient transfection, HEK293 cells are seeded into 6-well or 24-well cell culture dishes at a density of 6×10^5 cells/well or 1.5×10^5 cells/well, respectively, the day prior to transfection and grown to 50-70% confluency. […]
Human placental SEAP levels in cell supernatants are determined using either a fluorescence-based assay or an assay that measures light absorbance at 405 nm accompanying hydrolysis of pNPP according to the method described (Berger et al., 1988). […] 20 μl of 120 mM pNPP in 1x SEAP buffer prewarmed to 37° is added and the change in absorbance at 37° is plotted. […] For determination of SEAP levels by a fluorescence-based assay the Atto Phos AP Fluorescent Substrate Sysem (Promega) is used according to the manufacturer's instructions. […]

[6] = biological target: T4, ICAM-1 (Homo sapiens, UniProt P05362); test: Cell-free translation/translocation assay, ICAM-1; type: biochemical; details: reticulocyte lysate with dog pancreatic microsomes
T4 construct: Full length cDNAs of the adhesion molecules VCAM-1, ICAM-1 and E-Selectin are transcribed and translated; host or cells: cell-free: coupled TNT reticulocyte lysate (Promega) with dog pancreatic microsomes
Source text: (§2) Proteins are radioactively labelled and visualised by autoradlography.

[7] = biological target: T5, E-Selectin (Homo sapiens, UniProt P16581); test: Cell-free translation/translocation assay, E-Selectin; type: biochemical; details: reticulocyte lysate with dog pancreatic microsomes, at the concentrations tested
T5 construct: Full length cDNAs of the adhesion molecules VCAM-1, ICAM-1 and E-Selectin are transcribed and translated; host or cells: cell-free: coupled TNT reticulocyte lysate (Promega) with dog pancreatic microsomes
T5 sequence (P16581 22-610): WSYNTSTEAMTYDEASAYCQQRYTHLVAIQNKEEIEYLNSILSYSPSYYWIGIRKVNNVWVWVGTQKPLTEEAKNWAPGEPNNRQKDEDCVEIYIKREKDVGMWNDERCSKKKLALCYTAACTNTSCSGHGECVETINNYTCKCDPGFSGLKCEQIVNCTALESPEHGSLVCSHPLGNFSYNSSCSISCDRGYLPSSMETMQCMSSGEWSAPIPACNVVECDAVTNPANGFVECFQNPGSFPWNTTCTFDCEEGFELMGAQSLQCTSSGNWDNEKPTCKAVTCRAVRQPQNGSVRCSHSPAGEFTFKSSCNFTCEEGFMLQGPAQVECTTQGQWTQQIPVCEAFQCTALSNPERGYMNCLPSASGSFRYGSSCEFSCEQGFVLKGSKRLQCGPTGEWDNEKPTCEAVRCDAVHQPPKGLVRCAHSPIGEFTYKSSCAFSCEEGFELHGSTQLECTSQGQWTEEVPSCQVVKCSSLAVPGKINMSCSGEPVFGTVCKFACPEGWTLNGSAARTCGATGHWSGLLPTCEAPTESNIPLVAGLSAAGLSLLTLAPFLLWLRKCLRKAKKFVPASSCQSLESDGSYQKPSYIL
Source text: as §2

T4 sequence (P05362 28-532): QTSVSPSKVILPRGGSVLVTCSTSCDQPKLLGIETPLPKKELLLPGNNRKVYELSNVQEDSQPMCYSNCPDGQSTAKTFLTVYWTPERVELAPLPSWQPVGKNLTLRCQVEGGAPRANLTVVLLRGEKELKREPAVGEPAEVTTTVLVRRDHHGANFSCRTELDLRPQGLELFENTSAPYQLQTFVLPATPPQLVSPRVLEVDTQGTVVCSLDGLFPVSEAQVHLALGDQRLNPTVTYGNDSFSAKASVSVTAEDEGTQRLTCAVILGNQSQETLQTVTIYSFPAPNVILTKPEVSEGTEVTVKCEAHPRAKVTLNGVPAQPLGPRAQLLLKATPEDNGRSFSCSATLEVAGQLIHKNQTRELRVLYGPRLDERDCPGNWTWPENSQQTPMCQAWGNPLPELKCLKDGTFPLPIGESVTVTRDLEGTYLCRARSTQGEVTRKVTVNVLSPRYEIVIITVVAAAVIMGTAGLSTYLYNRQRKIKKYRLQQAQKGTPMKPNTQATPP

IC50 ([1]; transiently transfected HEK293 cells, 48 hours post-transfection, Western blot quantified against β-actin, read-out: concentration inhibiting 50% of VCAM-1 glycoprotein synthesis): < 5 nM
sensitivity of the chimeric construct to the compound [2]: partially sensitive
sensitivity of the chimeric construct to the compound [3]: resistant
concentration needed to inhibit translocation of ICAM-1, relative to VCAM-1 [6]: 20 to 30 times
translocation of E-Selectin [7]: resistant
SMILES: CCCCC(C)CC1NC(=O)C(Cc2cn(OC)c3ccccc23)N(C)C(=O)C(CC(C)C)NC(=O)C(CC(C)C)N(C)C(=O)C(CC(C)CCCC)NC(=O)C(CCC(=O)OCCC)OC(=O)C(C)N(C)C1=O (centres unmarked) [CP]
VCAM-1 protein in transfected cells co-treated with lactacystin ([1]; cells transiently transfected with VCAM-1 cDNA, co-treatment with lactacystin 5 μM, band identified as full length, non-glycosylated VCAM-1): accumulation of a polypeptide moiety of lower molecular weight
sensitivity of the chimeric construct to the compound [4]: full sensitivity
sensitivity of SEAP secretion to the compound [5]: compound-insensitive
